Experimental data: ChEMBL document CHEMBL4825755 (J Med Chem, 2021)

Key:
[1] = target: PI3K p110 beta/p85 alpha (Homo sapiens, UniProt P42338); assay: Inhibition of recombinant human N-terminal His6-tagged full length P110beta/full length untagged human p85alpha expressed in baculovirus infected Sf21 insect cells using PIP2 as substrate preincubated for 15 mins followed by substrate addition and measured after 60 mins by HTRF assay
[2] = in vitro; conditions: human, pooled liver microsomes
Description: Intrinsic clearance in pooled human liver microsomes at 0.5 uM measured up to 45 mins in presence of NADPH by LC-MS/MS analysis

[3] = target: PI3-kinase p110-alpha/p85-alpha (Homo sapiens, UniProt P42336); assay: Inhibition of recombinant human N-terminal His6-tagged full length P110alpha/full length untagged human p85alpha expressed in baculovirus infected Sf21 insect cells using PIP2 as substrate preincubated for 15 mins followed by substrate addition and measured after 60 mins by HTRF assay
[4] = Lipophilicity, log D of compound by chromatographic method; assay type: physicochemical
[5] = target: PI3-kinase p110-delta/p85-alpha (Homo sapiens, UniProt O00329); assay: Inhibition of recombinant human N-terminal His6-tagged full length P110delta/full length untagged human p85alpha expressed in baculovirus infected Sf21 insect cells using PIP2 as substrate preincubated for 15 mins followed by substrate addition and measured after 60 mins by HTRF assay
[6] = target: Phosphatidylinositol 4,5-bisphosphate 3-kinase catalytic subunit gamma isoform (Homo sapiens, UniProt P48736); assay: Inhibition of recombinant human N-terminal His6-tagged full length P120gamma expressed in baculovirus infected Sf21 insect cells using PIP2 as substrate preincubated for 15 mins followed by substrate addition and measured after 60 mins by HTRF assay
[7] = Intrinsic clearance in Wistar Han rat liver microsomes at 0.5 uM measured up to 45 mins in presence of NADPH by LC-MS/MS analysis; assay type: ADME, Microsome; conditions: read-out: CLH
[8] = target: T1, Phosphatidylinositol 4,5-bisphosphate 3-kinase catalytic subunit delta isoform (Homo sapiens, UniProt O00329); assay: Inhibition of PI3Kdelta in human whole blood assessed as reduction in cytostim-stimulated IFNgamma production preincubated for 1 hr followed by cytostim stimulation and measured after 20 hrs by electrochemiluminescence assay
T1 sequence (O00329 whole entry): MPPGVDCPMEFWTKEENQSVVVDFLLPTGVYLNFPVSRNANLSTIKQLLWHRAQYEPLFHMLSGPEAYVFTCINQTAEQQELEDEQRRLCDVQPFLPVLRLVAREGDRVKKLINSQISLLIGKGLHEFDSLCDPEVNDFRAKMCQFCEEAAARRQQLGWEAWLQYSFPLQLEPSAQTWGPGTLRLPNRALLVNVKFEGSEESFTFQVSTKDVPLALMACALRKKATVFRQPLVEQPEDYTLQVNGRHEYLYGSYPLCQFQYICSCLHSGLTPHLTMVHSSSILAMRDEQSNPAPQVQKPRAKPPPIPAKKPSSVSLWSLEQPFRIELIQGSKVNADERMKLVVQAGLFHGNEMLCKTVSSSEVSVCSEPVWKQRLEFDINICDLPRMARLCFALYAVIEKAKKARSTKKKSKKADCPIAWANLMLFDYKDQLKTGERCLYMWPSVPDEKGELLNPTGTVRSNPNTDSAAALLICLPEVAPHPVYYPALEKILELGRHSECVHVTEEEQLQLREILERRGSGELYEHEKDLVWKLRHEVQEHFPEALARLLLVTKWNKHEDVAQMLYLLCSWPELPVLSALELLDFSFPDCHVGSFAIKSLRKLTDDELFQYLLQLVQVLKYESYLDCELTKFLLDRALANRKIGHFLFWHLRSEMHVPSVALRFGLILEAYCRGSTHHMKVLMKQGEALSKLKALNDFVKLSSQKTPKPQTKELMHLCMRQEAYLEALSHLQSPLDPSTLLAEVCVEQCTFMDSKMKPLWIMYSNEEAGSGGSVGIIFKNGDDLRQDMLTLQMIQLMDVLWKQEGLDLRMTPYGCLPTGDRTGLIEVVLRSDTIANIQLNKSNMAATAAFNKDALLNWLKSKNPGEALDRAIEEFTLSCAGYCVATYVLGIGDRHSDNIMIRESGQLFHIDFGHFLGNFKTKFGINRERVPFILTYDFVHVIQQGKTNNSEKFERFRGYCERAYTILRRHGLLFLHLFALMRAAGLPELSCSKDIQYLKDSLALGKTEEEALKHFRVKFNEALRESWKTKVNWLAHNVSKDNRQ

Chain of Phosphatidylinositol 4,5-bisphosphate 3-kinase catalytic subunit gamma isoform (P48736 whole entry, canonical isoform): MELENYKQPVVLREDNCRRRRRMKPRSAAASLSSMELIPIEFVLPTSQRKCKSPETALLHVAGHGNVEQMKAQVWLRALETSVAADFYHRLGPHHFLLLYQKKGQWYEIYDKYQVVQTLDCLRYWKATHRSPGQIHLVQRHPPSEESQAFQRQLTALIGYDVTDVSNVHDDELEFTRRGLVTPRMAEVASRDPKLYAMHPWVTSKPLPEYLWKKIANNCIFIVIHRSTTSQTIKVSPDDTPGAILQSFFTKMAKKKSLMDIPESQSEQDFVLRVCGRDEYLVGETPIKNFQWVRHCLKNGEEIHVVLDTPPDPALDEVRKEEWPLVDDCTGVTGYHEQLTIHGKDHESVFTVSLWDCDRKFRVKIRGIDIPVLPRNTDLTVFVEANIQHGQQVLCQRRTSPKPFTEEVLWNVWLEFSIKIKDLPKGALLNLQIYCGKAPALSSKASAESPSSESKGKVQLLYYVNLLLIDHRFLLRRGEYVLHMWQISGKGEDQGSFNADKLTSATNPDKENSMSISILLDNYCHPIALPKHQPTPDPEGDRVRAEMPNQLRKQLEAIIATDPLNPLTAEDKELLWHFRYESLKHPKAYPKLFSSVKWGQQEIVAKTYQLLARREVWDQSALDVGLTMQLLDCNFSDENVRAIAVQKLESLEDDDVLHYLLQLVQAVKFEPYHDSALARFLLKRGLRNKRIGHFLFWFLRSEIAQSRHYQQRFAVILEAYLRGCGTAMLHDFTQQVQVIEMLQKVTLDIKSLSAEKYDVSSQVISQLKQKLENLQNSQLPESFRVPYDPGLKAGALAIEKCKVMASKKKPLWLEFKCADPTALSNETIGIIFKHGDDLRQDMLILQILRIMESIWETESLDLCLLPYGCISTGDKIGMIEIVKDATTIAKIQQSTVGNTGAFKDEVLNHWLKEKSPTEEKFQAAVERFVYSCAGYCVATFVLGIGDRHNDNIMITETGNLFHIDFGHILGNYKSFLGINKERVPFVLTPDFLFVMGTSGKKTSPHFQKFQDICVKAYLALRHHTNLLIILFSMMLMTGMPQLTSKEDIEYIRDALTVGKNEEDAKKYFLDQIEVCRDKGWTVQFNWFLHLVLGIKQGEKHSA
Chain of PI3-kinase p110-alpha/p85-alpha (P27986 whole entry): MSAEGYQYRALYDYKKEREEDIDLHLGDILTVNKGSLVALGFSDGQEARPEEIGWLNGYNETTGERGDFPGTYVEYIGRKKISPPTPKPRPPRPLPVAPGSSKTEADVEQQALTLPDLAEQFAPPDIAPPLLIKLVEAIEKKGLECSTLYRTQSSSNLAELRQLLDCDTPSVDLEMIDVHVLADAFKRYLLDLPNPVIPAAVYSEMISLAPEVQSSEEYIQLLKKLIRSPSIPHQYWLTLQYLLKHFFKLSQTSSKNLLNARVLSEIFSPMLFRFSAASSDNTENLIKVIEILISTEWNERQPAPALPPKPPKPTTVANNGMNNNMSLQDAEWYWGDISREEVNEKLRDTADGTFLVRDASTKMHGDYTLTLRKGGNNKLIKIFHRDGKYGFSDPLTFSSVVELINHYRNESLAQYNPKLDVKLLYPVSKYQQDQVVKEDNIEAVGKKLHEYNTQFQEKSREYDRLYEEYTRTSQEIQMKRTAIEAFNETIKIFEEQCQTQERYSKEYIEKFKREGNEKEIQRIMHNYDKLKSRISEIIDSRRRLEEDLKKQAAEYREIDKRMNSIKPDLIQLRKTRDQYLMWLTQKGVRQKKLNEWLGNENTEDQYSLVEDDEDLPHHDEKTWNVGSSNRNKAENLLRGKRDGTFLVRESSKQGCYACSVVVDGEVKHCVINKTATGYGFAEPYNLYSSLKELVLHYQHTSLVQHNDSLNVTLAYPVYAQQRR
Chain of PI3-kinase p110-alpha/p85-alpha (P42336 whole entry): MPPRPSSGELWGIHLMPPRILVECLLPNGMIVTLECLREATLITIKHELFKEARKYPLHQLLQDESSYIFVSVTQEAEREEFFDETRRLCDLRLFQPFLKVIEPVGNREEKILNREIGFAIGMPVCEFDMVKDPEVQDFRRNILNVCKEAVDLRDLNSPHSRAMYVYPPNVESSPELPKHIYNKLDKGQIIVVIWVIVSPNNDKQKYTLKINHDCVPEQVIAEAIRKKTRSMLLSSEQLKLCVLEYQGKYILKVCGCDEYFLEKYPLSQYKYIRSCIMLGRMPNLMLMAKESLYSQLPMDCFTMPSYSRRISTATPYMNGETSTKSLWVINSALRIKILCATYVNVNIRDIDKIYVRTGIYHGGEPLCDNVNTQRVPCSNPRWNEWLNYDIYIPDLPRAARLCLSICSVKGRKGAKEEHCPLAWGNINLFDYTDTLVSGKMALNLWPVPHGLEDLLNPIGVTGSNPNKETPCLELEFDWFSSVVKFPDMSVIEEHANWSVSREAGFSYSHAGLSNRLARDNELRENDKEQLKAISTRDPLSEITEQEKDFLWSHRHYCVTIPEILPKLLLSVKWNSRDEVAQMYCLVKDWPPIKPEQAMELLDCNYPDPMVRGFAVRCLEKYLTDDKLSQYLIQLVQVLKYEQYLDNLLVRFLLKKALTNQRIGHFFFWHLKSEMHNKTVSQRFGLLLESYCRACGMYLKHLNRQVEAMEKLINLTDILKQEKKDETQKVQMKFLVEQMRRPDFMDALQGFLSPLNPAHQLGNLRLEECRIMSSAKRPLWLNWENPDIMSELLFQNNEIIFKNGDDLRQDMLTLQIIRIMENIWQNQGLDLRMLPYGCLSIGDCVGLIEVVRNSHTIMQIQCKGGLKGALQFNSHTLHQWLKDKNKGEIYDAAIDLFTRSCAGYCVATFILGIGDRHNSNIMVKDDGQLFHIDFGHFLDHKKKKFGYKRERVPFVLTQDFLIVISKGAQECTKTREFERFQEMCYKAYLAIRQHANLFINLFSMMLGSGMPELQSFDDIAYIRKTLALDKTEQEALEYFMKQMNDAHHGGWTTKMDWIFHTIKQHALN
Chain of PI3-kinase p110-delta/p85-alpha (P27986 whole entry, one chain of several, canonical isoform): as the sequence (P27986 whole entry) above
Chain of PI3K p110 beta/p85 alpha (P27986 whole entry): as above
Chain of PI3K p110 beta/p85 alpha (P42338 whole entry): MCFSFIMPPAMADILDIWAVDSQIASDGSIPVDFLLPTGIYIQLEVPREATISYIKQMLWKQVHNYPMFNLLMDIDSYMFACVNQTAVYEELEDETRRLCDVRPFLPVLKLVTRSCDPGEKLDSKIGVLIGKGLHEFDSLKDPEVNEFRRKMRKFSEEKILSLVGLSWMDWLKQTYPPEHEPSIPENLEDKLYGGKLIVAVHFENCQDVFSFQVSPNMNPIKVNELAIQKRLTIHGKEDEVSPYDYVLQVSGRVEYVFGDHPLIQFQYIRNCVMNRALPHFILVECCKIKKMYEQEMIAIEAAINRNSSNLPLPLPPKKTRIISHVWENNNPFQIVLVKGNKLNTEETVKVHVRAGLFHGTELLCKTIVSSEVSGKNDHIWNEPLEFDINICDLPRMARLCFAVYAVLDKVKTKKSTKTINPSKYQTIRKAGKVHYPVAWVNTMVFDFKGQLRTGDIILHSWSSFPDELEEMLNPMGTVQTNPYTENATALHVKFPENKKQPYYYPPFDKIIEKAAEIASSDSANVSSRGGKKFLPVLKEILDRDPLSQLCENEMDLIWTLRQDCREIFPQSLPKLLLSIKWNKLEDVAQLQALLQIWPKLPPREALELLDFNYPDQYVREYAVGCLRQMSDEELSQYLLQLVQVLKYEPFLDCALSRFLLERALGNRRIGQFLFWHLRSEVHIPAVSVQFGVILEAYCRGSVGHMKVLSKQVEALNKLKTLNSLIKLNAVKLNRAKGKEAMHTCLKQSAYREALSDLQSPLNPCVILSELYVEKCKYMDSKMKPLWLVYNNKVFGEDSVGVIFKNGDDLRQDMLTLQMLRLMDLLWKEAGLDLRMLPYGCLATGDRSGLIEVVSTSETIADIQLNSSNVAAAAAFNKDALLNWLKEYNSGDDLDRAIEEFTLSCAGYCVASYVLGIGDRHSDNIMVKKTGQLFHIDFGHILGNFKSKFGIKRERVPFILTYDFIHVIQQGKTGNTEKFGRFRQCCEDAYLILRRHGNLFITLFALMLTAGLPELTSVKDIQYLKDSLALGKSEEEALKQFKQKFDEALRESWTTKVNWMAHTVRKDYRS

SMILES | IC50 [1] | CLint scaled at 0.75 h, 0.5 µM [2] | IC50 [3] | chromatographic logD [4] | IC50 [5] | Ki [5] | IC50 [6] | CLint scaled at 0.5 µM [7] | IC50 [8] | pIC50 ([6]; sf21)
COc1ncc(N2CCOCC2)cc1S(=O)(=O)Nc1ccnc(-c2ccc(CN3CCN(C(C)(C)C)CC3)cc2F)c1 | 3980 nM | < 0.31 mL/min/kg | 794 nM | 1.9 | 0.794 nM | 0.0251 nM | 2000 nM | < 0.37 mL/min/kg | 2.51 nM | –
COc1ncc(N2CCOCC2)cc1S(=O)(=O)Nc1ccnc(-c2ccc(CN3CCN(C(C)(C)C)CC3)cc2)c1 [listing 1 of 2 here] | – | < 0.4 mL/min/kg | – | 1.3 | 0.794 nM | 0.0251 nM | – | < 0.46 mL/min/kg | 7.94 nM | –
COc1ncc(C2=CCOCC2)cc1S(=O)(=O)Nc1cncc(-c2ccc(CN3CCN(C)CC3)cc2)c1 | 501 nM | 1.64 mL/min/kg | 251 nM | 2.3 | 3.16 nM | – | 3160 nM | 0.96 mL/min/kg | 39.8 nM | –
COc1ncc(C2=CCOCC2)cc1S(=O)(=O)Nc1cncc(-c2ccc(CN3CCN(C(C)C)CC3)nc2)c1 | 3980 nM | 0.43 mL/min/kg | 1260 nM | 1.8 | 1.26 nM | 0.0251 nM | 5010 nM | < 0.46 mL/min/kg | 31.6 nM | –
COc1ncc(C2=CCOCC2)cc1S(=O)(=O)Nc1cncc(C2=CCN(C)CC2)c1 | 5010 nM | – | 20000 nM | 1.5 | 316 nM | – | 5010 nM | – | – | –
COc1ncc(C2=CCOCC2)cc1S(=O)(=O)Nc1cncc(-c2cccc(CN3CCCCC3)c2)c1 | 1260 nM | 1.88 mL/min/kg | 5010 nM | 3.5 | 5.01 nM | – | 6310 nM | 3.98 mL/min/kg | 79.4 nM | –
COc1ncc(N2CCOCC2)cc1S(=O)(=O)Nc1ccnc(-c2ccc(CN3CCN(C(C)C)CC3)cc2)c1 | 10000 nM | < 0.4 mL/min/kg | 2510 nM | 1.4 | 1.26 nM | 0.0398 nM | 5010 nM | < 0.46 mL/min/kg | 12.6 nM | –
COc1ncc(N2CCOCC2)cc1S(=O)(=O)Nc1cncc(-c2ccc(CN3CCCC3)cc2)c1 [listing 1 of 2 here] | – | – | – | – | – | – | 10000 nM | – | – | –
COc1ncc(N2CCOCC2)cc1S(=O)(=O)Nc1ccnc(-c2ccc(CN3C[C@@H](C)O[C@@H](C)C3)cc2F)c1 | 1580 nM | 0.87 mL/min/kg | 1260 nM | 3.9 | 1 nM | 0.0316 nM | 251 nM | 0.59 mL/min/kg | 7.94 nM | –
COc1ncc(N2CCOCC2)cc1S(=O)(=O)Nc1ccnc(-c2ccc(CN3CCC(C(C)(C)O)CC3)cc2F)c1 | 2510 nM | < 0.4 mL/min/kg | 2510 nM | 2.1 | 1.58 nM | 0.0501 nM | 3160 nM | < 0.46 mL/min/kg | 10 nM | –
COc1ncc(C2=CCOCC2)cc1S(=O)(=O)Nc1cncc(-c2ccc(N3CCN(C(C)C)CC3)cc2)c1 | 316 nM | – | 316 nM | 3.8 | 3.16 nM | – | 7940 nM | – | 50.1 nM | –
COc1ncc(N2CCOCC2)cc1S(=O)(=O)Nc1cncc(-c2ccc(CN3CCN(C(C)C)CC3)cc2F)c1 [listing 1 of 2 here] | – | – | – | – | – | – | – | – | 3.16 nM | –
COc1ncc(C2=CCOCC2)cc1S(=O)(=O)Nc1cncc(-c2cccc(CN3CCCC3)c2)c1 | 794 nM | 0.71 mL/min/kg | 5010 nM | 2.4 | 6.31 nM | – | 3980 nM | 1.1 mL/min/kg | 200 nM | –
COc1ncc(N2CCOCC2)cc1S(=O)(=O)Nc1cncc(C#CCN2CCN(C(C)C)CC2)c1 | 15800 nM | < 0.4 mL/min/kg | 20000 nM | 1.6 | 31.6 nM | – | – | < 0.46 mL/min/kg | 158 nM | > 4.5
COc1ncc(C2=CCOCC2)cc1S(=O)(=O)Nc1cncc(C2CC2CN(C)C)c1 (configuration not stated) | 1260 nM | – | 6310 nM | 1.2 | 126 nM | – | 7940 nM | – | – | –
COc1ncc(N2CCOCC2)cc1S(=O)(=O)Nc1cncc(-c2ccc(CN3CCN(C(C)C)CC3)cc2F)c1 [listing 2 of 2 here] | 3980 nM | 0.65 mL/min/kg | 501 nM | 2.6 | 1.26 nM | – | 2510 nM | < 0.46 mL/min/kg | – | –
COc1ncc(C2=CCOCC2)cc1S(=O)(=O)Nc1cncc(-c2ccc(CN3C[C@@H](C)N(C)[C@@H](C)C3)cc2)c1 | 2510 nM | 3.04 mL/min/kg | 316 nM | 3.1 | 0.501 nM | 0.0158 nM | 5010 nM | 0.87 mL/min/kg | 1.26 nM | –
COc1ncc(C2=CCOCC2)cc1S(=O)(=O)Nc1cncc(C#CCN2C[C@@H](C)O[C@@H](C)C2)c1 | 5010 nM | 3.64 mL/min/kg | 6310 nM | 3.6 | 3.98 nM | – | 5010 nM | 5.59 mL/min/kg | – | –
COc1ncc(C2=CCOCC2)cc1S(=O)(=O)Nc1cncc(-c2ccc(CN3CCNCC3)cc2)c1 | 794 nM | 2.21 mL/min/kg | 3160 nM | 3.3 | 3.16 nM | 0.126 nM | 7940 nM | 3.18 mL/min/kg | 12.6 nM | –
COc1ncc(C2=CCOCC2)cc1S(=O)(=O)Nc1ccccc1 | 2510 nM | – | 3980 nM | – | 200 nM | – | 7940 nM | – | 3980 nM | –
COc1ncc(N2CCOCC2)cc1S(=O)(=O)Nc1cncc(-c2ccc(CN3CCN(C(C)C)CC3)cc2)c1 | 2510 nM | 0.71 mL/min/kg | 1260 nM | 2.3 | 2.51 nM | 0.0794 nM | 7940 nM | < 0.46 mL/min/kg | 20 nM | –
COc1ncc(N2CCOCC2)cc1S(=O)(=O)Nc1ccnc(-c2ccc(CN3CCN(C(C)C)CC3)c(F)c2F)c1 [listing 1 of 2 here] | – | – | – | – | – | – | 2000 nM | – | – | –
COc1ncc(N2CCOCC2)cc1S(=O)(=O)Nc1ccnc(-c2ccc(CN3CCN(C(C)C)CC3)c(F)c2F)c1 [listing 2 of 2 here] | 5010 nM | 0.47 mL/min/kg | 1260 nM | 2.2 | 1.58 nM | 0.0631 nM | – | < 0.46 mL/min/kg | 3.16 nM | –
COc1ncc(C2=CCOCC2)cc1S(=O)(=O)Nc1cncc(-c2ccc(CN3CCCCC3)s2)c1 | 100 nM | – | 1580 nM | 4.7 | 2.51 nM | – | 1580 nM | – | 31.6 nM | –
COc1ncc(N2CCOCC2)cc1S(=O)(=O)Nc1ccnc(-c2ccc(CN3CCN(C(C)(C)C)CC3)cc2)c1 [listing 2 of 2 here] | 6310 nM | – | 1580 nM | – | – | – | 3980 nM | – | – | –
COc1ncc(N2CCOCC2)cc1S(=O)(=O)Nc1cncc(-c2ccc(CN3CCCC3)cc2)c1 [listing 2 of 2 here] | 2000 nM | < 0.4 mL/min/kg | 5010 nM | 1.9 | 20 nM | – | – | < 0.46 mL/min/kg | 79.4 nM | –
